# According to patent US20080318970A1, “Treatment of Infectious Diseases” (priority 2004, published 2008):
# Tests used:
# [1] = system: S. aureus O11; experiment: Checkerboard combination study (FIC index); format: cell-based, Staphylococcus aureus; conditions: anti-infective agent Dicloxacillin; isolate susceptible (S)
# Experimental: Staphylococcus aureus O11. Clinical isolate resistant to penicillin. Susceptible to methicillin, tetracycline, beta-lactams, fluoroquinolones, chloramphenicol and aminoglycosides.
# The synergistic effect was studied by checkerboard combination studies exposing cells to 0-64 μg/ml anti-infective agent in the absence or presence of trans-flupenthixol, cis-flupenthixol or trans-clopenthixol. Each experiment was repeated in tripleduplicate. MIC values represent the mean values of two separate experiments,
# A log phase culture of bacteria was diluted with fresh pre-warmed medium and adjusted to a defined OD at 600 nm in order to give a final concentration of 1×10^4 bacteria/ml medium in each well. Each chemosensitising compound was added to the bacterial culture in the wells in two-fold dilutions in order to give final concentrations ranging from 0 to 8 μg/ml. Anti-infective agent was added to the bacterial culture in the wells in two-fold dilutions in order to give final concentrations ranging from 0 to 64 μg/ml Trays were incubated at 37° C. for 16 h. Wells were assessed visually for growth. The Fractional Inhibitory Concentration (FIC) was calculated for each anti-infective agent alone and in combination with trans-flupenthixol, cis-flupenthixol or trans-clopenthixol. The following formulae were used to calculate the FIC index:
# (§1) FIC=FICchemosensitising compound+FICanti-infective agent
# (§2) FICchemosensitising compound=(MICchemosensitising compound+anti-infective agent)/(MICchemosensitising compound)
# FICanti-infective agent=(MICanti-infective agent+chemosensitising compound/(MICanti-Infective agent)
# (§3) Synergy was defined as a FIC index of <0.5.
# [2] = system: Fluconazole Resistant Candida albicans; experiment: Checkerboard combination study on fungals, broth microdilution (NCCLS M27-A); format: cell-based; conditions: for FIC index: fluconazole with trans-clopenthixol
# Experimental: The synergistic effect of Trans-clopenthixol was studied by checkerboard combination studies exposing cells to 0-256 μg/ml anti-infective agent in the absence or presence of trans-clopenthixol (0 to 8 μg/ml in two-fold dilutions). Each experiment was repeated in tripleduplicate. MIC values represent the mean values of two separate experiments.
# Clinical Isolate of a Fluconazole Resistant Candida albicans from a Patient with candidemia.
# The isolates were subcultured for 24 h on Sabouraud glucose agar before susceptibility testing.
# Broth microdilution tests were performed according to NCCLS document M27-A (Ref: National Committee for Clinical Laboratory Standards. (1997). Reference Method for Broth Dilution Antifungal Susceptibility Testing of Yeasts: Approved Standard M27-A. NCCLS, Wayne, Pa.)
# Microtitre plates were read spectrophotometrically at 530 nm, after mixing the wells by pipetting to resuspend yeast sediments.
# The Fractional Inhibitory Concentration (FIC) was calculated for the anti-infective agent alone and in combination with trans-clopenthixol. The following formulae were used to calculate the FIC index:
# as §1, §2
# FICanti-infective agent=(MICanti-infective agent+chemosensitising compound/(MICanti-infective agent)
# as §3
smiles,measurement,setting,value
OCCN1CCN(CC/C=C2\c3ccccc3Sc3ccc(Cl)cc32)CC1 [trans-clopenthixol],FIC index,[1],0.25
same,MIC,[2]; agent alone,32 µg/mL
same,FIC index,[2],< 0.5
same,FIC index,[2]; listed as Trans-clopenthixol,0.16
same,effective concentrations,[2]; in combination with an anti-fungal agent,≤ 3 µg/mL
